Tests used:
CYP3A4 = CYP3A4 (Homo sapiens, UniProt P08684); assay: Study 1 (NCT03628339): effect of tepotinib on midazolam pharmacokinetics in healthy participants
Procedure: (§1) Study 1 (NCT03628339) and Study 2 (NCT03492437) were both Phase 1, open-label, single sequence, 2-period studies in 12 and 20 healthy participants, respectively (Fig. 1).
In Period 2 (Days 3 to 15), participants received 500 mg tepotinib, QD 30 min after starting a continental breakfast on Days 3 to 12. On Day 13, participants received the final dose of 500 mg tepotinib 30 min after starting a standardized breakfast identical to the one on Day 1. […] Blood samples for trough concentrations of tepotinib were collected on Days 11, 12 and 13.
(§2) Parameters included maximum plasma concentration (Cmax) and time to reach Cmax (Tmax) taken directly from the observed data. Area under the plasma concentration–time curve (AUC) from time 0 to the last measured concentration (AUC0-t), AUC over the dose interval (AUCtau) and AUC extrapolated to infinity (AUC0-∞) were calculated using the mixed log/linear trapezoidal rule. Terminal elimination half-life (t1/2) was calculated as ln(2)/λz where λz is the terminal rate constant. The primary pharmacokinetic parameters in both studies were Cmax, AUC0-t and AUC0-∞.
(§3) A similar statistical approach was taken for both studies. […] Point estimates and CIs were back-transformed to the original scale.

P-gp = P-gp (Homo sapiens, UniProt P08183); assay: Study 2 (NCT03492437): effect of tepotinib on dabigatran pharmacokinetics in healthy participants; type: in vivo
Sequence of P-gp (P08183 whole entry): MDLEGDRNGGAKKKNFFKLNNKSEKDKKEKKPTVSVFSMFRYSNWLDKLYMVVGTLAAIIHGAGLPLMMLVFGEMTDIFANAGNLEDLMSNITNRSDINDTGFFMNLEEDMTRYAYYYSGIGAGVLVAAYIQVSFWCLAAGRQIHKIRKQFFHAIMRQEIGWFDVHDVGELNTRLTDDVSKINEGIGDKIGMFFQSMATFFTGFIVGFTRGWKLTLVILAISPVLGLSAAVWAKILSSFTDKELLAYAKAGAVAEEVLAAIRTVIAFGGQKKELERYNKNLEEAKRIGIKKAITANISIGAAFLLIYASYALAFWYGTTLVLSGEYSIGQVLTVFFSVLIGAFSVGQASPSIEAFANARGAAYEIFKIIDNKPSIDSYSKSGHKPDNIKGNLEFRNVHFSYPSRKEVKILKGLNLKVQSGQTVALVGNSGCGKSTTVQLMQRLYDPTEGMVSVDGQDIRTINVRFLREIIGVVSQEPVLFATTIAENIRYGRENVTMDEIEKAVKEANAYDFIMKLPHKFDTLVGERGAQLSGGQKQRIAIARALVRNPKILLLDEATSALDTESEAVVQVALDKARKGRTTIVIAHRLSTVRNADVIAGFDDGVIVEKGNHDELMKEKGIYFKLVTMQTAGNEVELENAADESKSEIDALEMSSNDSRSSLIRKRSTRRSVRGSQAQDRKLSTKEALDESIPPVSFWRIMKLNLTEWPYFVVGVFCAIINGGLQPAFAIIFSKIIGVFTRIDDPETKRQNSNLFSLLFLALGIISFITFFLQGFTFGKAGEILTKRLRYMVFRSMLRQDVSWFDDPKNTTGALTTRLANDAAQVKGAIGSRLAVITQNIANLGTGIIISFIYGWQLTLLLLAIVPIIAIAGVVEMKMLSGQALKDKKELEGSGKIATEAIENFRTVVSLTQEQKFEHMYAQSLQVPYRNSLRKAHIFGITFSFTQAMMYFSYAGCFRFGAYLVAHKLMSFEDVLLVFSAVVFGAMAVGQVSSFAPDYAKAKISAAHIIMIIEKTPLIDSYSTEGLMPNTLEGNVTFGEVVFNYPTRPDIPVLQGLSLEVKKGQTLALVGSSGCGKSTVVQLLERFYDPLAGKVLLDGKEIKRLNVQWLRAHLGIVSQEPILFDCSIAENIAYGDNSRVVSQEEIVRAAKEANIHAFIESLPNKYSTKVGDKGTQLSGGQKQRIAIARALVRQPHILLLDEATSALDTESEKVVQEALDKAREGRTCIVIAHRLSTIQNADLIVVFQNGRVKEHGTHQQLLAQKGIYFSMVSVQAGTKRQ
Procedure: as §1
In Period 2 (Days 4 to 14), participants received 500 mg tepotinib QD on Days 4 to 11. […] Blood samples for trough concentrations of tepotinib were collected on Days 9 and 10. Further blood samples for tepotinib and its metabolites were also collected up to 24 h postdose on Day 10.
as §2, §3

[1] = midazolam 7.5 mg single oral dose alone, N = 12, geometric mean (geometric CV%)
[2] = midazolam 7.5 mg with tepotinib 500 mg once daily, N = 12, geometric mean (geometric CV%)
[3] = tepotinib + dabigatran versus dabigatran alone

Sequence of CYP3A4 (P08684 whole entry): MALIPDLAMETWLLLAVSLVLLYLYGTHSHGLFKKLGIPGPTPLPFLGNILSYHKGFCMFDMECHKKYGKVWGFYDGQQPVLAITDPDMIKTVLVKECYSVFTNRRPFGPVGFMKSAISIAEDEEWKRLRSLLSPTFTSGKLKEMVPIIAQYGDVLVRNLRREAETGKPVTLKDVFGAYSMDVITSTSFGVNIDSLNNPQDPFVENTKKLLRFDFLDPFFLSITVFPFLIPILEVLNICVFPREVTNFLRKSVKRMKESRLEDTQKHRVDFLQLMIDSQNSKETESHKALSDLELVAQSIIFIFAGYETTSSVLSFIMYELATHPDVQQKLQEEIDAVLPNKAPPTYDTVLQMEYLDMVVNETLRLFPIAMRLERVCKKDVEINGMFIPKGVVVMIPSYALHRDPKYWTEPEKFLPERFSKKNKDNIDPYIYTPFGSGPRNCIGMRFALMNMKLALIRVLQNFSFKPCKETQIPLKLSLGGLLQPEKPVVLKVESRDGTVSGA

Which results are given for `OCc1ncc2n1-c1ccc(Cl)cc1C(c1ccccc1F)=NC2` [1-hydroxymidazolam]?
AUC0-t (CYP3A4; [1]): 30,589 (24) h*pg/mL; AUC0-∞ (CYP3A4; [1]): 31,269 (23) h*pg/mL; Cmax (CYP3A4; [1]): 14,909 (60) pg/mL; t1/2 (CYP3A4; [1]): 6.34 (30) h; Tmax (CYP3A4; midazolam 7.5 mg single oral dose alone, N = 12, median (min, max)): 0.500 (0.500, 2.00) h; AUC0-t (CYP3A4; [2]): 32,627 (25) h*pg/mL; AUC0-∞ (CYP3A4; [2]): 33,372 (24) h*pg/mL; Cmax (CYP3A4; [2]): 15,852 (35) pg/mL; t1/2 (CYP3A4; [2]): 6.90 (27) h; Tmax (CYP3A4; midazolam 7.5 mg with tepotinib 500 mg once daily, N = 12, median (min, max)): 0.508 (0.483, 2.00) h; MR_AUC (metabolic ratio of 1-hydroxymidazolam AUC0-∞ and midazolam AUC0-∞) (CYP3A4; midazolam alone, geometric mean (geometric CV%)): 0.286 (37) ratio; MR_AUC (metabolic ratio of 1-hydroxymidazolam AUC0-∞ and midazolam AUC0-∞) (CYP3A4; midazolam with tepotinib 500 mg once daily, geometric mean (geometric CV%)): 0.302 (34) ratio

Which half-life (P-gp; human, plasma, oral, read-out: Terminal half-life (converted)) does the source give for `[H]/N=C(/N)c1ccc(NCc2nc3cc(C(=O)N(CCC(=O)O)c4ccccn4)ccc3n2C)cc1` [dabigatran] here?
Its half-life is about 8 h.

What about the “Exposure increase to dabigatran with tepotinib” value (P-gp; tepotinib 500 mg QD orally) of the same compound?
Its value is under 2 fold.

And the “Increase of dabigatran area under the curve extrapolated to infinity by tepotinib” value (P-gp; tepotinib 500 mg once daily)?
The value was 51%.

What about the “Increase of dabigatran AUC by coadministration with tepotinib” value (P-gp; tepotinib 500 mg once daily, compared to administration alone) of the same compound?
Its value is about 50%.

And the “Ratio of Geometric LS Mean (90% CI), AUC0-t” value (P-gp; [3])?
The value was 151.38 (127.35, 179.93) %.

What about the “Ratio of Geometric LS Mean (90% CI), AUC0-∞” value (P-gp; [3]) of the same compound?
The value was 144.70 (122.89, 170.39) %.

What does the source list for `Cc1ncc2n1-c1ccc(Cl)cc1C(c1ccccc1F)=NC2` [midazolam]?
Tmax (CYP3A4; human, plasma, oral): 0.508 h; half-life (CYP3A4; human, plasma, oral): ~5 h; AUC0-t (CYP3A4; human, plasma, po, 7.5 mg): 108 ng·h/mL; AUC(0-inf) (CYP3A4; human, plasma, po, 7.5 mg): 109 ng·h/mL; Cmax (CYP3A4; human, plasma, po, 7.5 mg): 49.2 ng/mL; Tmax (CYP3A4; human, plasma, po, 7.5 mg): 0.5 h; t1/2 (CYP3A4; [2]): 4.81 (41) h; Change in exposure to midazolam with tepotinib (in words) (CYP3A4; tepotinib 500 mg QD orally): no change in exposure

Reference: paper PMC10447267, “Assessment of the potential of the MET inhibitor tepotinib to affect the pharmacokinetics of CYP3A4 and P-gp substrates” (Investigational New Drugs, 2023)
